# Publication PMC7064328 (Environmental Health Perspectives, 2020)
# What was measured:
# Pregnant CD-1 mice [1] = test: Clinical chemistry of dam serum and urine; format: in vivo, mouse (CD-1); conditions: for ALB / ALP / ALT / AST / BUN / Chol / Cre / Glu / HDL / LDL / SDH / TBA / TP / Trig: dam serum; for Ucrea: dam urine
# Protocol: Dam livers, kidneys, and placentas were trimmed and embedded by the NIEHS Mouse Embryo Phenotyping Core. Tissues collected at necropsy were fixed in 4% PFA for 72 h and paraffin embedded, and 5-μm sections were prepared and stained with hematoxylin and eosin (H&E). Pathology was evaluated and a pathology review conducted by S.A.E. Diplomate American College of Veterinary Pathologists (DACVP). Pathology reviews were conducted as an informed approach analysis [e.g., nonblinded analysis; see Sills et al. ([2019])]. Select tissue slides were scanned using the AT2 Scanner (Aperio). Images were then captured for publication using the ImageScope software; version 12.3.0.5056 (Aperio). Serum and urine obtained from dams in Block 2 were analyzed using the AU480 clinical chemistry analyzer (Beckman Coulter Inc.). Reagents and calibration standards used to measure alkaline phosphatase (ALP), alanine aminotransferase (ALT), aspartate aminotransferase (AST), blood urea nitrogen (BUN), serum creatinine, urine creatinine, glucose (Glu), total protein (TP), triglyceride (Trig), high-density lipoprotein (HDL), cholesterol (Chol), and albumin (ALB) were purchased from Beckman Coulter Inc. Reagents for sorbitol dehydrogenase (SDH), total bile acid (TBA), and micro-TP were purchased from Sekisui Diagnostics. The reagent used to measure low-density lipoprotein (LDL) was purchased form Diazyme Laboratories.
# Pregnant CD-1 mice [2] = test: Litter parameters at necropsy (implantation sites, resorptions, viable and nonviable embryos); format: in vivo, mouse (CD-1); conditions: for % nonviable / % resorbed: percent of implantation sites
# Protocol: On the day of necropsy, dams received daily oral gavage between 0700 and 0800 hours and were weighed and then euthanized humanely by swift decapitation, and serum was collected. In Block 1, necropsies were completed from 0800 to 1600 hours, and in Block 2, necropsies were completed from 0800 to 1200 hours. Serum from dams euthanized in Block 1 was snap frozen for internal dosimetry analyses. Serum and urine from Block 2 dams were reserved for clinical chemistry analyses. In both blocks, the uterus was removed, and total implantation sites were counted based on gross observation of an implantation nodule along the uterine horn. Viable embryos, nonviable embryos, and sites of resorption were counted based on gross observation. Embryos were considered viable if they were properly formed, were not pale in color, and were of similar size to neighboring embryos. Embryos that were poorly formed and pale in color (without heartbeat) were considered nonviable. Sites of resorption were defined as a dark red–appearing clot-like nodule apparent on gross observation.
smiles,measurement,setting,value
"O=C(O)C(F)(F)C(F)(F)C(F)(F)C(F)(F)C(F)(F)C(F)(F)C(F)(F)F [PFOA, Perfluorooctanoic acid]",Dam serum Trig lowered vs controls,"Pregnant CD-1 mice [1]; E11.5, 1 mg/kg/d",37%
same,Dam serum Trig lowered vs controls,"Pregnant CD-1 mice [1]; E11.5, 5 mg/kg/d",58%
same,Serum Glu lower relative to controls,"Pregnant CD-1 mice [1]; E11.5, 5 mg/kg/d, p=0.06",20%
same,Dam serum Trig lower vs controls,"Pregnant CD-1 mice [1]; E17.5, 5 mg/kg/d",66%
same,LDL lower vs controls,"Pregnant CD-1 mice [1]; E17.5, 5 mg/kg/d",50%
same,ALT increase relative to controls,"Pregnant CD-1 mice [1]; Table 2 (E11.5), 5 mg/kg/d, not statistically significant",172%
same,ALB,"Pregnant CD-1 mice [1]; E11.5, 1 mg/kg/d",2.42±0.22 (5) g/dL
same,ALP,"Pregnant CD-1 mice [1]; E11.5, 1 mg/kg/d",54.6±4.4 (5) U/L
same,ALT,"Pregnant CD-1 mice [1]; E11.5, 1 mg/kg/d",28.8±11.5 (5) U/L
same,AST,"Pregnant CD-1 mice [1]; E11.5, 1 mg/kg/d",144.6±167.6 (5) U/L
same,BUN,"Pregnant CD-1 mice [1]; E11.5, 1 mg/kg/d",15.0±2.7 (5) mg/dL
same,Chol,"Pregnant CD-1 mice [1]; E11.5, 1 mg/kg/d",68.8±18.0 (5) mg/dL
same,Cre,"Pregnant CD-1 mice [1]; E11.5, 1 mg/kg/d",0.2±0.05 (5) mg/dL
same,Glu,"Pregnant CD-1 mice [1]; E11.5, 1 mg/kg/d",278.4±27.8 (5) mg/dL
same,HDL,"Pregnant CD-1 mice [1]; E11.5, 1 mg/kg/d",34.8±10.9 (5) mg/dL
same,LDL,"Pregnant CD-1 mice [1]; E11.5, 1 mg/kg/d",12.2±1.9 (5) mg/dL
same,SDH,"Pregnant CD-1 mice [1]; E11.5, 1 mg/kg/d",8.4±7.8 (5) U/L
same,TBA,"Pregnant CD-1 mice [1]; E11.5, 1 mg/kg/d",1.5±0.58 (4) μM/L
same,TP,"Pregnant CD-1 mice [1]; E11.5, 1 mg/kg/d",4.04±0.3 (5) g/dL
same,Trig,"Pregnant CD-1 mice [1]; E11.5, 1 mg/kg/d",130.4±16.2 (5) mg/dL
same,ALB,"Pregnant CD-1 mice [1]; E11.5, 5 mg/kg/d",2.36±0.21 (5) g/dL
same,ALP,"Pregnant CD-1 mice [1]; E11.5, 5 mg/kg/d",56.6±35.6 (5) U/L
same,ALT,"Pregnant CD-1 mice [1]; E11.5, 5 mg/kg/d",70.8±16.2 (5) U/L
same,AST,"Pregnant CD-1 mice [1]; E11.5, 5 mg/kg/d",92.6±20.3 (5) U/L
same,BUN,"Pregnant CD-1 mice [1]; E11.5, 5 mg/kg/d",15.8±1.3 (5) mg/dL
same,Chol,"Pregnant CD-1 mice [1]; E11.5, 5 mg/kg/d",69.4±9.9 (5) mg/dL
same,Cre,"Pregnant CD-1 mice [1]; E11.5, 5 mg/kg/d",0.18±0.03 (5) mg/dL
same,Glu,"Pregnant CD-1 mice [1]; E11.5, 5 mg/kg/d",220.4±22.1 (5) mg/dL
same,HDL,"Pregnant CD-1 mice [1]; E11.5, 5 mg/kg/d",42.6±4.0 (5) mg/dL
same,LDL,"Pregnant CD-1 mice [1]; E11.5, 5 mg/kg/d",10.6±1.5 (5) mg/dL
same,SDH,"Pregnant CD-1 mice [1]; E11.5, 5 mg/kg/d",12.4±8.3 (5) U/L
same,TBA,"Pregnant CD-1 mice [1]; E11.5, 5 mg/kg/d",2.0±0.0 (5) μM/L
same,TP,"Pregnant CD-1 mice [1]; E11.5, 5 mg/kg/d",3.78±0.22 (5) g/dL
same,Trig,"Pregnant CD-1 mice [1]; E11.5, 5 mg/kg/d",86.4±15.8 (5) mg/dL
same,ALB,"Pregnant CD-1 mice [1]; E17.5, 1 mg/kg/d",2.04±0.09 (5) g/dL
same,ALP,"Pregnant CD-1 mice [1]; E17.5, 1 mg/kg/d",50.2±4.2 (5) U/L
same,ALT,"Pregnant CD-1 mice [1]; E17.5, 1 mg/kg/d",7.0±4.3 (5) U/L
same,AST,"Pregnant CD-1 mice [1]; E17.5, 1 mg/kg/d",73.0±14.0 (5) U/L
same,BUN,"Pregnant CD-1 mice [1]; E17.5, 1 mg/kg/d",16.4±1.7 (5) mg/dL
same,Chol,"Pregnant CD-1 mice [1]; E17.5, 1 mg/kg/d",83.8±20.0 (5) mg/dL
same,Cre,"Pregnant CD-1 mice [1]; E17.5, 1 mg/kg/d",0.2±0.01 (5) mg/dL
same,Glu,"Pregnant CD-1 mice [1]; E17.5, 1 mg/kg/d",121.0±17.3 (5) mg/dL
same,HDL,"Pregnant CD-1 mice [1]; E17.5, 1 mg/kg/d",37.2±6.2 (5) mg/dL
same,LDL,"Pregnant CD-1 mice [1]; E17.5, 1 mg/kg/d",24.0±10.7 (5) mg/dL
same,SDH,"Pregnant CD-1 mice [1]; E17.5, 1 mg/kg/d",3.4±6.1 (5) U/L
same,TBA,"Pregnant CD-1 mice [1]; E17.5, 1 mg/kg/d",3.0±1.2 (5) μM/L
same,TP,"Pregnant CD-1 mice [1]; E17.5, 1 mg/kg/d",3.9±0.11 (5) g/dL
same,Trig,"Pregnant CD-1 mice [1]; E17.5, 1 mg/kg/d",364.0±272.9 (5) mg/dL
same,ALB,"Pregnant CD-1 mice [1]; E17.5, 5 mg/kg/d",1.53±0.27 (6) g/dL
same,ALP,"Pregnant CD-1 mice [1]; E17.5, 5 mg/kg/d",74.8±23.8 (6) U/L
same,ALT,"Pregnant CD-1 mice [1]; E17.5, 5 mg/kg/d",16.8±7.7 (6) U/L
same,AST,"Pregnant CD-1 mice [1]; E17.5, 5 mg/kg/d",172.2±63.1 (6) U/L
same,BUN,"Pregnant CD-1 mice [1]; E17.5, 5 mg/kg/d",18.7±5.3 (6) mg/dL
same,Chol,"Pregnant CD-1 mice [1]; E17.5, 5 mg/kg/d",68.5±16.4 (6) mg/dL
same,Cre,"Pregnant CD-1 mice [1]; E17.5, 5 mg/kg/d",0.16±0.06 (6) mg/dL
same,Glu,"Pregnant CD-1 mice [1]; E17.5, 5 mg/kg/d",112.0±15.8 (6) mg/dL
same,HDL,"Pregnant CD-1 mice [1]; E17.5, 5 mg/kg/d",38.8±11.2 (6) mg/dL
same,LDL,"Pregnant CD-1 mice [1]; E17.5, 5 mg/kg/d",11.0±3.0 (5) mg/dL
same,SDH,"Pregnant CD-1 mice [1]; E17.5, 5 mg/kg/d",24.3±11.2 (6) U/L
same,TBA,"Pregnant CD-1 mice [1]; E17.5, 5 mg/kg/d",8.0±7.9 (6) μM/L
same,TP,"Pregnant CD-1 mice [1]; E17.5, 5 mg/kg/d",2.8±0.39 (6) g/dL
same,Trig,"Pregnant CD-1 mice [1]; E17.5, 5 mg/kg/d",159.0±65.5 (6) mg/dL
same,Ucrea,"Pregnant CD-1 mice [1]; E11.5, 1 mg/kg/d",92.0±13.1 (4) mg/dL
same,Ucrea,"Pregnant CD-1 mice [1]; E11.5, 5 mg/kg/d",50.1±33.8 (4) mg/dL
same,Ucrea,"Pregnant CD-1 mice [1]; E17.5, 1 mg/kg/d",24.7±23.1 (2) mg/dL
same,Ucrea,"Pregnant CD-1 mice [1]; E17.5, 5 mg/kg/d",11.5±5.9 (3) mg/dL
same,No. dead embryos,"Pregnant CD-1 mice [2]; E11.5, 1 mg/kg/d",0.0 ± 0.0
same,No. implantation sites,"Pregnant CD-1 mice [2]; E11.5, 1 mg/kg/d",15.5 ± 2.7
same,No. resorptions,"Pregnant CD-1 mice [2]; E11.5, 1 mg/kg/d",0.6 ± 0.5
same,No. viable embryos,"Pregnant CD-1 mice [2]; E11.5, 1 mg/kg/d",14.8 ± 2.5
same,No. dead embryos,"Pregnant CD-1 mice [2]; E11.5, 5 mg/kg/d",0.1 ± 0.3
same,No. implantation sites,"Pregnant CD-1 mice [2]; E11.5, 5 mg/kg/d",14.5 ± 2.3
same,No. resorptions,"Pregnant CD-1 mice [2]; E11.5, 5 mg/kg/d",0.5 ± 0.9
same,No. viable embryos,"Pregnant CD-1 mice [2]; E11.5, 5 mg/kg/d",13.9 ± 2.2
same,No. dead embryos,"Pregnant CD-1 mice [2]; E17.5, 1 mg/kg/d",0.1 ± 0.3
same,No. implantation sites,"Pregnant CD-1 mice [2]; E17.5, 1 mg/kg/d",13.5 ± 2.0
same,No. resorptions,"Pregnant CD-1 mice [2]; E17.5, 1 mg/kg/d",0.3 ± 0.5
same,No. viable embryos,"Pregnant CD-1 mice [2]; E17.5, 1 mg/kg/d",13.1 ± 2.1
same,No. dead embryos,"Pregnant CD-1 mice [2]; E17.5, 5 mg/kg/d",0.0 ± 0.0
same,No. implantation sites,"Pregnant CD-1 mice [2]; E17.5, 5 mg/kg/d",13.7 ± 2.1
same,No. resorptions,"Pregnant CD-1 mice [2]; E17.5, 5 mg/kg/d",0.3 ± 0.5
same,No. viable embryos,"Pregnant CD-1 mice [2]; E17.5, 5 mg/kg/d",13.3 ± 1.9
same,% nonviable,"Pregnant CD-1 mice [2]; E11.5, 1 mg/kg/d",0.0 ± 0.0%
same,% resorbed,"Pregnant CD-1 mice [2]; E11.5, 1 mg/kg/d",4.0 ± 3.3%
same,% nonviable,"Pregnant CD-1 mice [2]; E11.5, 5 mg/kg/d",0.6 ± 1.9%
same,% resorbed,"Pregnant CD-1 mice [2]; E11.5, 5 mg/kg/d",3.6 ± 5.9%
same,% nonviable,"Pregnant CD-1 mice [2]; E17.5, 1 mg/kg/d",0.6 ± 2.1%
same,% resorbed,"Pregnant CD-1 mice [2]; E17.5, 1 mg/kg/d",2.6 ± 3.9%
same,% nonviable,"Pregnant CD-1 mice [2]; E17.5, 5 mg/kg/d",0.0 ± 0.0%
same,% resorbed,"Pregnant CD-1 mice [2]; E17.5, 5 mg/kg/d",2.3 ± 3.4%
